In this assay the test system is Heart. Put plainly: Cardioprotective effect in Langendorff perfused isolated rat hearts assessed as reduction in ischemic injury. It counts as functional, tissue-based.

The source made the active and inactive calls. How the calls were made is not given here.

On to `COc1cccc(CN2CC3(CC(C)(C)Oc4ccccc43)OCC2=O)c1` (stereo not given), for which the outcome was inactive.
On to `COc1ccccc1CN1CC2(CC(C)(C)Oc3ccc(Br)cc32)OCC1=O` (stereo not given), for which the result was Active.
In the case of `CC1(C)CC2(CN(Cc3ccc(Br)cc3)C(=O)CO2)c2ccccc2O1` (stereo not given) it was “Active”; in that of `Cc1ccc(C(=O)N2CCOC3(C2)CC(C)(C)Oc2ccccc23)cc1` (stereo not given), “inactive”.
With `CC1(C)CC2(CN(Cc3ccc(NS(C)(=O)=O)cc3)CCO2)c2ccccc2O1` (stereo not given), the outcome was inactive.
As for `COc1ccc(CN2CC3(CC(C)(C)Oc4ccccc43)OCC2=O)cc1` (stereo not given), the result was inactive.
`CC1(C)CC2(CN(Cc3ccc(Br)cc3)C(=O)CO2)c2cc(Br)ccc2O1` (stereo not given): the result was inactive.
In the case of `CC1(C)CC2(CN(Cc3ccccc3)CCO2)c2cc(Br)ccc2O1` (stereo not given) it was “inactive”; in that of `CC1(C)CC2(CN(C(=O)c3ccccc3)C(=O)CO2)c2ccccc2O1` (stereo not given), “inactive”.
As to `CC1(C)CC2(OC(=O)N(Cc3ccc(NS(C)(=O)=O)cc3)C2=N)c2cc(Br)ccc2O1` (stereo not given), the result was inactive.
For the compound `CC1(C)CC2(CN(Cc3ccc(N)cc3)CCO2)c2cc(Br)ccc2O1` (stereo not given), the outcome was inactive.
Consider `CC1(C)CC2(CN(Cc3ccc(NS(C)(=O)=O)cc3)C(=O)O2)c2ccccc2O1` (stereo not given), for which the result was inactive.
`CC1(C)CC2(CN(Cc3ccccc3)C(=O)CO2)c2ccccc2O1` (stereo not given): the outcome was inactive.
Take `CC1(C)Oc2ccc(C#N)cc2[C@@H](/N=C(\NC#N)Nc2ccc(Cl)cc2)[C@@H]1O` (single isomer, unassigned): the result was Active.
Then `CC1(C)CC2(CN(C(=O)c3ccccc3)CCO2)c2ccccc2O1` (stereo not given), with “inactive”.
Then `CC(N/C(=N\C#N)Nc1ccncc1)C(C)(C)C` (stereo not given), with “Active”.
In the case of `CC1(C)CC2(CN(Cc3ccccc3)C(=S)CO2)c2cc(Br)ccc2O1` (stereo not given) it was “inactive”; in that of `CC1(C)CC2(CN(Cc3ccccc3)C(=S)CO2)c2ccccc2O1` (stereo not given), “Active”.
With `CC1(C)CC2(CN(Cc3ccc(Br)cc3)CCO2)c2ccccc2O1` (stereo not given), the result was inactive.
In the case of `COc1cccc(CN2CCOC3(C2)CC(C)(C)Oc2ccc(Br)cc23)c1` (stereo not given) it was “Active”.
As to `CC1(C)CC2(CN(Cc3ccc(NS(C)(=O)=O)cc3)C(=O)CO2)c2cc(Br)ccc2O1` (stereo not given), the outcome was Active.
In the case of `CC(=O)Nc1ccc(C(=O)N2CCOC3(C2)CC(C)(C)Oc2ccccc23)cc1` (stereo not given) it was “inactive”; in that of `CC1(C)CC2(CN(Cc3ccc(C(F)(F)F)cc3)C(=O)CO2)c2ccccc2O1` (stereo not given), “inactive”.
Then `Cc1ccc(CN2CC3(CC(C)(C)Oc4ccccc43)OCC2=O)cc1` (stereo not given), with “inactive”; and `CC1(C)CC2(CN(Cc3ccccc3)CCO2)c2ccccc2O1` (stereo not given), with “Active”.
Then `CC1(C)CC2(OC(=O)N(Cc3ccc(NS(C)(=O)=O)cc3)C2=N)c2ccccc2O1` (stereo not given), with “inactive”; and `COc1ccc(CN2CCOC3(C2)CC(C)(C)Oc2ccc(Br)cc23)cc1` (stereo not given), with “inactive”; and `Cc1ccc(CN2CCOC3(C2)CC(C)(C)Oc2ccccc23)cc1` (stereo not given), with “Active”.
On to `CC1(C)CN(C2=CCCC2=O)c2cc(C#N)ccc2S1`, for which the outcome was Active.
On to `CC1(C)CC2(CN(Cc3ccc(C(F)(F)F)cc3)CCO2)c2cc(Br)ccc2O1` (stereo not given), for which the result was Active.
As for `CC1(C)CC2(CN(S(=O)(=O)c3ccccc3)CCO2)c2ccccc2O1` (stereo not given), the outcome was inactive.
In the case of `CC1(C)CN(C2=CCCC2=O)c2cc([N+](=O)[O-])ccc2S1` it was “Active”.
In the case of `CC1(C)CC2(CN(Cc3ccc(N)cc3)CCO2)c2ccccc2O1` (stereo not given) it was “Active”.
Then `CC(=O)Nc1ccc(CN2C(=N)C3(CC(C)(C)Oc4ccccc43)OC2=O)cc1` (stereo not given), with “Active”.
Turning to `CC(=O)Nc1ccc(CN2CC3(CC(C)(C)Oc4ccccc43)OC2=O)cc1` (stereo not given), the outcome was inactive.
In the case of `CC1(C)CC2(CN(Cc3ccc(NS(C)(=O)=O)cc3)C(=O)CO2)c2ccccc2O1` (stereo not given) it was “Active”; in that of `COc1cccc(CN2CC3(CC(C)(C)Oc4ccc(Br)cc43)OCC2=O)c1` (stereo not given), “inactive”; in that of `COc1cccc(CN2CCOC3(C2)CC(C)(C)Oc2ccccc23)c1` (stereo not given), “inactive”.
Then `CC1(C)CC2(CN(S(=O)(=O)c3ccccc3)C(=O)CO2)c2ccccc2O1` (stereo not given), with “inactive”; and `CC(=O)Nc1ccc(CN2CC3(CC(C)(C)Oc4ccc(Br)cc43)OCC2=O)cc1` (stereo not given), with “inactive”; and `CC(=O)Nc1ccc(CN2CC3(CC(C)(C)Oc4ccccc43)OCC2=O)cc1` (stereo not given), with “Active”.
On to `COc1ccc(CN2CC3(CC(C)(C)Oc4ccc(Br)cc43)OCC2=O)cc1` (stereo not given), for which the result was Active.
Regarding `CC(=O)Nc1ccc(CN2CCOC3(C2)CC(C)(C)Oc2ccc(Br)cc23)cc1` (stereo not given), the outcome was inactive.
With `CC1(C)Oc2ccc(C#N)cc2[C@H](N(Cc2ncc[nH]2)c2ccc(Cl)cc2)[C@H]1O`, the result was Active.
In the case of `COc1ccc(CN2CCOC3(C2)CC(C)(C)Oc2ccccc23)cc1` (stereo not given) it was “Active”.
Then `CC1(C)CC2(CN(Cc3ccc(C(F)(F)F)cc3)CCO2)c2ccccc2O1` (stereo not given), with “inactive”.
As for `CC1(C)CC2(CN(Cc3ccc(NS(C)(=O)=O)cc3)CCO2)c2cc(Br)ccc2O1` (stereo not given), the outcome was Active.
`CCC(C)(C)/N=C(\NC#N)Nc1cccnc1`: the result was inactive.
As to `CC1(C)CC2(CN(Cc3ccccc3)C(=O)CO2)c2cc(Br)ccc2O1` (stereo not given), the result was inactive.
On to `CC1(C)Oc2ccc(C#N)cc2C(N2CCCC2=O)C1O` (stereo not given), for which the outcome was Active.
In the case of `Cc1ccc(CN2CC3(CC(C)(C)Oc4ccc(Br)cc43)OCC2=O)cc1` (stereo not given) it was “inactive”.
As for `CC1(C)CC2(CN(Cc3ccc(N)cc3)C(=O)CO2)c2ccccc2O1` (stereo not given), the outcome was Active.
In the case of `CC1(C)CN(C2=CCCC2=O)c2cc(C(F)(F)F)ccc2S1` it was “Active”; in that of `CC1(C)CC2(CN(Cc3ccc(C(F)(F)F)cc3)C(=O)CO2)c2cc(Br)ccc2O1` (stereo not given), “inactive”; in that of `CC1(C)CC2(CN(Cc3ccc(N)cc3)C(=O)CO2)c2cc(Br)ccc2O1` (stereo not given), “Active”.
Turning to `CC1=Nc2ccc(Cl)cc2S(=O)(=O)N1`, the outcome was Active.
On to `CC1(C)CC2(OC(=O)N(Cc3ccccc3)C2=N)c2cc(Br)ccc2O1` (stereo not given), for which the outcome was inactive.
Turning to `COc1ccccc1CN1CC2(CC(C)(C)Oc3ccccc32)OCC1=O` (stereo not given), the result was Active.
Then `CC(=O)Nc1ccc(CN2CCOC3(C2)CC(C)(C)Oc2ccccc23)cc1` (stereo not given), with “inactive”; and `Cc1ccc(CN2CCOC3(C2)CC(C)(C)Oc2ccc(Br)cc23)cc1` (stereo not given), with “Active”.

For the origin of these results see ChEMBL document CHEMBL1154116, “Predictive models, based on classification algorithms, for compounds potentially active as mitochondrial ATP-sensitive potassium channel openers” (Bioorg Med Chem, 2009).
